Measured values reported in the NIST ThermoML archive (doi:10.1016/j.tca.2006.01.013).
± gives the expanded uncertainty stated by the source.

Assay: xn = mol fraction of the nth substance listed
Conditions: 101 kPa, Liquid, Vibrating tube method

## NCCN [ethane-1,2-diamine] + O
323.15 K, x2 = 0.0401
  mass density: 872.83 ± 0.44 kg/m3
323.15 K, x2 = 0.0797
  mass density: 876.97 ± 0.42 kg/m3
323.15 K, x2 = 0.1199
  mass density: 881.48 ± 0.41 kg/m3
323.15 K, x2 = 0.1598
  mass density: 886.3 ± 0.39 kg/m3
323.15 K, x2 = 0.2003
  mass density: 891.39 ± 0.38 kg/m3
323.15 K, x2 = 0.25
  mass density: 897.71 ± 0.36 kg/m3
323.15 K, x2 = 0.2999
  mass density: 904.5 ± 0.34 kg/m3
323.15 K, x2 = 0.3497
  mass density: 911.88 ± 0.32 kg/m3
323.15 K, x2 = 0.3998
  mass density: 919.54 ± 0.3 kg/m3
323.15 K, x2 = 0.4504
  mass density: 927.55 ± 0.28 kg/m3
323.15 K, x2 = 0.5001
  mass density: 935.8 ± 0.27 kg/m3
323.15 K, x2 = 0.5499
  mass density: 944.38 ± 0.24 kg/m3
323.15 K, x2 = 0.5998
  mass density: 952.77 ± 0.22 kg/m3
323.15 K, x2 = 0.6499
  mass density: 960.7 ± 0.19 kg/m3
323.15 K, x2 = 0.7004
  mass density: 967.91 ± 0.17 kg/m3
323.15 K, x2 = 0.7499
  mass density: 973.34 ± 0.14 kg/m3
323.15 K, x2 = 0.8
  mass density: 976.78 ± 0.12 kg/m3
323.15 K, x2 = 0.84
  mass density: 978.35 ± 0.1 kg/m3
323.15 K, x2 = 0.88
  mass density: 979.3 ± 0.09 kg/m3
323.15 K, x2 = 0.9193
  mass density: 980.41 ± 0.07 kg/m3
323.15 K, x2 = 0.9599
  mass density: 982.91 ± 0.06 kg/m3
328.15 K, x2 = 0.0401
  mass density: 868.06 ± 0.44 kg/m3
328.15 K, x2 = 0.0797
  mass density: 872.2 ± 0.42 kg/m3
328.15 K, x2 = 0.1199
  mass density: 876.73 ± 0.41 kg/m3
328.15 K, x2 = 0.1598
  mass density: 881.56 ± 0.39 kg/m3
328.15 K, x2 = 0.2003
  mass density: 886.66 ± 0.37 kg/m3
328.15 K, x2 = 0.25
  mass density: 892.99 ± 0.36 kg/m3
328.15 K, x2 = 0.2999
  mass density: 899.79 ± 0.34 kg/m3
328.15 K, x2 = 0.3497
  mass density: 907.18 ± 0.32 kg/m3
328.15 K, x2 = 0.3998
  mass density: 914.84 ± 0.3 kg/m3
328.15 K, x2 = 0.4504
  mass density: 922.85 ± 0.28 kg/m3
328.15 K, x2 = 0.5001
  mass density: 931.11 ± 0.27 kg/m3
328.15 K, x2 = 0.5499
  mass density: 939.7 ± 0.24 kg/m3
328.15 K, x2 = 0.5998
  mass density: 948.12 ± 0.22 kg/m3
328.15 K, x2 = 0.6499
  mass density: 956.11 ± 0.19 kg/m3
328.15 K, x2 = 0.7004
  mass density: 963.45 ± 0.17 kg/m3
328.15 K, x2 = 0.7499
  mass density: 969.1 ± 0.15 kg/m3
328.15 K, x2 = 0.8
  mass density: 972.86 ± 0.12 kg/m3
328.15 K, x2 = 0.84
  mass density: 974.76 ± 0.1 kg/m3
328.15 K, x2 = 0.88
  mass density: 976.06 ± 0.09 kg/m3
328.15 K, x2 = 0.9193
  mass density: 977.53 ± 0.07 kg/m3
328.15 K, x2 = 0.9599
  mass density: 980.35 ± 0.06 kg/m3
333.15 K, x2 = 0.0401
  mass density: 863.25 ± 0.44 kg/m3
333.15 K, x2 = 0.0797
  mass density: 867.42 ± 0.42 kg/m3
333.15 K, x2 = 0.1199
  mass density: 871.95 ± 0.4 kg/m3
333.15 K, x2 = 0.1598
  mass density: 876.8 ± 0.39 kg/m3
333.15 K, x2 = 0.2003
  mass density: 881.91 ± 0.37 kg/m3
333.15 K, x2 = 0.25
  mass density: 888.25 ± 0.35 kg/m3
333.15 K, x2 = 0.2999
  mass density: 895.05 ± 0.34 kg/m3
333.15 K, x2 = 0.3497
  mass density: 902.45 ± 0.32 kg/m3
333.15 K, x2 = 0.3998
  mass density: 910.11 ± 0.3 kg/m3
333.15 K, x2 = 0.4504
  mass density: 918.12 ± 0.28 kg/m3
333.15 K, x2 = 0.5001
  mass density: 926.38 ± 0.27 kg/m3
333.15 K, x2 = 0.5499
  mass density: 934.98 ± 0.24 kg/m3
333.15 K, x2 = 0.5998
  mass density: 943.43 ± 0.22 kg/m3
333.15 K, x2 = 0.6499
  mass density: 951.49 ± 0.2 kg/m3
333.15 K, x2 = 0.7004
  mass density: 958.96 ± 0.17 kg/m3
333.15 K, x2 = 0.7499
  mass density: 964.81 ± 0.15 kg/m3
333.15 K, x2 = 0.8
  mass density: 968.88 ± 0.12 kg/m3
333.15 K, x2 = 0.84
  mass density: 971.09 ± 0.11 kg/m3
333.15 K, x2 = 0.88
  mass density: 972.74 ± 0.09 kg/m3
333.15 K, x2 = 0.9193
  mass density: 974.54 ± 0.08 kg/m3
333.15 K, x2 = 0.9599
  mass density: 977.65 ± 0.06 kg/m3
338.15 K, x2 = 0.0401
  mass density: 858.43 ± 0.43 kg/m3
338.15 K, x2 = 0.0797
  mass density: 862.6 ± 0.42 kg/m3
338.15 K, x2 = 0.1199
  mass density: 867.15 ± 0.4 kg/m3
338.15 K, x2 = 0.1598
  mass density: 872.01 ± 0.39 kg/m3
338.15 K, x2 = 0.2003
  mass density: 877.13 ± 0.37 kg/m3
338.15 K, x2 = 0.25
  mass density: 883.48 ± 0.35 kg/m3
338.15 K, x2 = 0.2999
  mass density: 890.29 ± 0.34 kg/m3
338.15 K, x2 = 0.3497
  mass density: 897.69 ± 0.32 kg/m3
338.15 K, x2 = 0.3998
  mass density: 905.35 ± 0.3 kg/m3
338.15 K, x2 = 0.4504
  mass density: 913.36 ± 0.28 kg/m3
338.15 K, x2 = 0.5001
  mass density: 921.62 ± 0.27 kg/m3
338.15 K, x2 = 0.5499
  mass density: 930.23 ± 0.24 kg/m3
338.15 K, x2 = 0.5998
  mass density: 938.7 ± 0.22 kg/m3
338.15 K, x2 = 0.6499
  mass density: 946.83 ± 0.2 kg/m3
338.15 K, x2 = 0.7004
  mass density: 954.42 ± 0.17 kg/m3
338.15 K, x2 = 0.7499
  mass density: 960.46 ± 0.15 kg/m3
338.15 K, x2 = 0.8
  mass density: 964.84 ± 0.12 kg/m3
338.15 K, x2 = 0.84
  mass density: 967.34 ± 0.11 kg/m3
338.15 K, x2 = 0.88
  mass density: 969.32 ± 0.09 kg/m3
338.15 K, x2 = 0.9193
  mass density: 971.43 ± 0.08 kg/m3
338.15 K, x2 = 0.9599
  mass density: 974.83 ± 0.07 kg/m3
343.15 K, x2 = 0.0401
  mass density: 853.59 ± 0.43 kg/m3
343.15 K, x2 = 0.0797
  mass density: 857.77 ± 0.42 kg/m3
343.15 K, x2 = 0.1199
  mass density: 862.33 ± 0.4 kg/m3
343.15 K, x2 = 0.1598
  mass density: 867.2 ± 0.39 kg/m3
343.15 K, x2 = 0.2003
  mass density: 872.32 ± 0.37 kg/m3
343.15 K, x2 = 0.25
  mass density: 878.68 ± 0.35 kg/m3
343.15 K, x2 = 0.2999
  mass density: 885.49 ± 0.33 kg/m3
343.15 K, x2 = 0.3497
  mass density: 892.89 ± 0.32 kg/m3
343.15 K, x2 = 0.3998
  mass density: 900.55 ± 0.3 kg/m3
343.15 K, x2 = 0.4504
  mass density: 908.57 ± 0.28 kg/m3
343.15 K, x2 = 0.5001
  mass density: 916.83 ± 0.27 kg/m3
343.15 K, x2 = 0.5499
  mass density: 925.44 ± 0.24 kg/m3
343.15 K, x2 = 0.5998
  mass density: 933.95 ± 0.22 kg/m3
343.15 K, x2 = 0.6499
  mass density: 942.13 ± 0.2 kg/m3
343.15 K, x2 = 0.7004
  mass density: 949.83 ± 0.17 kg/m3
343.15 K, x2 = 0.7499
  mass density: 956.08 ± 0.15 kg/m3
343.15 K, x2 = 0.8
  mass density: 960.73 ± 0.13 kg/m3
343.15 K, x2 = 0.84
  mass density: 963.52 ± 0.11 kg/m3
343.15 K, x2 = 0.88
  mass density: 965.81 ± 0.09 kg/m3
343.15 K, x2 = 0.9193
  mass density: 968.22 ± 0.08 kg/m3
343.15 K, x2 = 0.9599
  mass density: 971.88 ± 0.07 kg/m3
348.15 K, x2 = 0.0401
  mass density: 848.71 ± 0.43 kg/m3
348.15 K, x2 = 0.0797
  mass density: 852.91 ± 0.42 kg/m3
348.15 K, x2 = 0.1199
  mass density: 857.47 ± 0.4 kg/m3
348.15 K, x2 = 0.1598
  mass density: 862.35 ± 0.39 kg/m3
348.15 K, x2 = 0.2003
  mass density: 867.48 ± 0.37 kg/m3
348.15 K, x2 = 0.25
  mass density: 873.85 ± 0.35 kg/m3
348.15 K, x2 = 0.2999
  mass density: 880.67 ± 0.33 kg/m3
348.15 K, x2 = 0.3497
  mass density: 888.07 ± 0.32 kg/m3
348.15 K, x2 = 0.3998
  mass density: 895.73 ± 0.3 kg/m3
348.15 K, x2 = 0.4504
  mass density: 903.74 ± 0.28 kg/m3
348.15 K, x2 = 0.5001
  mass density: 912 ± 0.27 kg/m3
348.15 K, x2 = 0.5499
  mass density: 920.62 ± 0.24 kg/m3
348.15 K, x2 = 0.5998
  mass density: 929.15 ± 0.22 kg/m3
348.15 K, x2 = 0.6499
  mass density: 937.39 ± 0.2 kg/m3
348.15 K, x2 = 0.7004
  mass density: 945.19 ± 0.17 kg/m3
348.15 K, x2 = 0.7499
  mass density: 951.64 ± 0.15 kg/m3
348.15 K, x2 = 0.8
  mass density: 956.56 ± 0.13 kg/m3
348.15 K, x2 = 0.84
  mass density: 959.62 ± 0.11 kg/m3
348.15 K, x2 = 0.88
  mass density: 962.21 ± 0.09 kg/m3
348.15 K, x2 = 0.9193
  mass density: 964.91 ± 0.08 kg/m3
348.15 K, x2 = 0.9599
  mass density: 968.82 ± 0.07 kg/m3
353.15 K, x2 = 0.0401
  mass density: 843.82 ± 0.43 kg/m3
353.15 K, x2 = 0.0797
  mass density: 848.01 ± 0.41 kg/m3
353.15 K, x2 = 0.1199
  mass density: 852.59 ± 0.4 kg/m3
353.15 K, x2 = 0.1598
  mass density: 857.48 ± 0.38 kg/m3
353.15 K, x2 = 0.2003
  mass density: 862.61 ± 0.37 kg/m3
353.15 K, x2 = 0.25
  mass density: 868.98 ± 0.35 kg/m3
353.15 K, x2 = 0.2999
  mass density: 875.81 ± 0.33 kg/m3
353.15 K, x2 = 0.3497
  mass density: 883.2 ± 0.32 kg/m3
353.15 K, x2 = 0.3998
  mass density: 890.86 ± 0.3 kg/m3
353.15 K, x2 = 0.4504
  mass density: 898.87 ± 0.28 kg/m3
353.15 K, x2 = 0.5001
  mass density: 907.14 ± 0.26 kg/m3
353.15 K, x2 = 0.5499
  mass density: 915.76 ± 0.24 kg/m3
353.15 K, x2 = 0.5998
  mass density: 924.32 ± 0.22 kg/m3
353.15 K, x2 = 0.6499
  mass density: 932.61 ± 0.2 kg/m3
353.15 K, x2 = 0.7004
  mass density: 940.53 ± 0.17 kg/m3
353.15 K, x2 = 0.7499
  mass density: 947.14 ± 0.15 kg/m3
353.15 K, x2 = 0.8
  mass density: 952.33 ± 0.13 kg/m3
353.15 K, x2 = 0.84
  mass density: 955.65 ± 0.11 kg/m3
353.15 K, x2 = 0.88
  mass density: 958.53 ± 0.1 kg/m3
353.15 K, x2 = 0.9193
  mass density: 961.5 ± 0.08 kg/m3
353.15 K, x2 = 0.9599
  mass density: 965.65 ± 0.07 kg/m3
